In patent US20230149381A1, “BREAST CANCER THERAPEUTIC AGENT” (Eisai R&D Management Co., Ltd., priority 2020, published 2023) one finds mean tumor volume data, which are given here for 1 compound.

In assay [1] the test system is human breast cancer patient derived tumor (OD-BRE-0438). Nature of the assay: Growth inhibiting effect of compound A on patient-derived tumor graft in mice (Reference Example 1, no pretreatment). To be noted: NOD-SCID mice. The class given is in vivo. Here is the method:
(§1) The long and short diameters of the tumors were measured using an electronic digital caliper (Digimatic™ caliper by Mitsutoyo Corp.). The tumor volumes were calculated by the following formula.
(§2) Tumor volume (mm^3)=Long diameter (mm)×short diameter (mm)×short diameter (mm)/2
Reference Example 1 Growth inhibiting effect of compound A on human breast cancer patient derived tumor (OD-BRE-0438)
The antitumor effect of administering compound A was evaluated using NOD-SCID mice (NOD.CB17-Prkdcscid/J, female, Charles River Japan), with 6 mice per group.
Tumor slices were grafted under the mouse skin and subcultured. The tumors excised from the mice were cut to about 4 mm-square, and a trocar ((φ3.5 mm) was used for grafting under the skin of the right flank of each mouse, for evaluation of the antitumor effect.
A 1 mg/mL solution of β-estradiol (FujiFilm-Wako) was prepared with 99.5% ethanol (FujiFilm-Wako). It was then adjusted to a final concentration of […] using supply-use sterilized water. The mice were given free access to food from the day of tumor grafting until the end of the test.
Compound A was dissolved in purified water to a concentration of 2.5 mg/mL. On the 32nd day after tumor grafting, the mice were divided into groups in such a manner that the average tumor volumes were approximately the same in each group. The tumor volumes were calculated by the same method as Example 1.
Compound A was orally administered to the mice in each group at a dose of 50 mg/kg (20 mL/kg), once per day for 14 days. The control group was untreated.
The tumor volume and body weight of each mouse were measured on day 3, 7, 10 and 14 after starting administration of compound A. The changes in mean tumor volume in each group are shown in Table 2 and FIG. 2.

For assay [2], the system named is human breast cancer patient-derived tumor (OD-BRE-0438). Nature of the assay: Growth inhibition effect of compound A after palbociclib and fulvestrant administration, patient-derived tumor graft in mice. Type of assay: in vivo. To be noted: NOD-SCID mice, after 14 days palbociclib + fulvestrant. Here is the method:
Example 1 Growth inhibition effect of compound A after palbociclib and fulvestrant administration for human breast cancer patient-derived tumor (OD-BRE-0438) Using NOD-SCID mice (NOD.CB17-Prkdcscid/J, female, Charles River Japan), with 5 to 6 mice per group, the antitumor effect of administering compound A after completion of an administration period with palbociclib and fulvestrant was evaluated.
OD-BRE-0438 is a tumor line from an estrogen receptor-positive breast cancer patient, established by Oncodesign Co. The tumor slices were grafted under the mouse skin and subcultured. The tumors excised from the mice were cut to about 4 mm-square, and a trocar (φ3.5 mm) was used for grafting under the skin of the right flank of each mouse.
A 1 mg/mL solution of β-estradiol (FujiFilm-Wako) was prepared with 99.5% ethanol (FujiFilm-Wako). It was then adjusted to a final concentration of 2.5 μg/mL using supply-use sterilized water. The mouse were given free access to food from the day of tumor grafting until the end of the test.
as §1, §2
Commercially available palbociclib isethionate (Selleck Chemicals) was adjusted to 10 mg/mL concentration with 50 mM sodium lactate buffer (pH 4.0). A commercially available fulvestrant formulation (trade name: Faslodex Intramuscular Injection 250 mg, by AstraZeneca) was used directly.
Palbociclib and fulvestrant administration was initiated from the 26th day after tumor grafting. Palbociclib was orally administered once per day for 14 days at a dosage of 100 mg/kg (10 mL/kg). Fulvestrant was hypodermically injected on the 26th and 33rd day, at a dosage of 250 mg/kg (5 mL/kg).
On the 40th day, the mice were divided into groups in such a manner that the average tumor volumes were approximately the same in each group. The control group consisted of 6 mice, and the compound A-administered group consisted of 5 mice, at different dosages.
Compound A was dissolved in purified water to a concentration of 2.5 mg/mL. Compound A was orally administered to the mice in each group at a dose of 25 mg/kg (10 mL/kg) or 50 mg/kg (20 mL/kg), once per day for 14 days. The control group was untreated.
The tumor volume and body weight of each mouse were measured on day 3, 7, 10 and 14 after starting administration of compound A. The changes in mean tumor volume in each group are shown in Table 1 and FIG. 1.

Setting [3] is: Day 0 (baseline at grouping), compound A 50 mg/kg oral once per day.
Where [4] appears, read: Day 3, compound A 50 mg/kg oral once per day.
The mark [5] stands for this setting: Day 7, compound A 50 mg/kg oral once per day.
Setting [6] is: Day 10, compound A 50 mg/kg oral once per day.
The mark [7] stands for this setting: Day 14, compound A 50 mg/kg oral once per day.

In the case of `CNC(=O)n1ccc2cc(Oc3ccnc(NC(=O)c4ccc(C5CCN(CCO)CC5)cc4)c3)c(OCCOC)cc21` [Compound A, 5-((2-(4-(1-(2-hydroxyethyl)piperidin-4-yl)benzamide)pyridin-4-yl)oxy)-6-(2-methoxyethoxy)-N-methyl-1H-indole-1-carboxamide], the mean tumor volume in assay [1] (setting [3]) came out at 234.1 mm^3; in assay [1] (setting [4]) it was 267.0 mm^3; in assay [1] (setting [5]), 338.8 mm^3; in assay [1] (setting [6]), 380.8 mm^3; in assay [1] (setting [7]), 403.4 mm^3; in assay [2] (Day 0 (baseline at grouping), compound A 25 mg/kg oral once per day), 261.4 mm^3. The mean tumor volume in assay [2] (setting [3]) was 262.6 mm^3; in assay [2] (Day 3, compound A 25 mg/kg oral once per day) it was 211.9 mm^3; in assay [2] (setting [4]) it was 174.8 mm^3; in assay [2] (Day 7, compound A 25 mg/kg oral once per day), 167.6 mm^3; in assay [2] (setting [5]) it was 136.1 mm^3; in assay [2] (Day 10, compound A 25 mg/kg oral once per day) it was 138.3 mm^3. Also, the mean tumor volume in assay [2] (setting [6]) came to 110.4 mm^3; in assay [2] (Day 14, compound A 25 mg/kg oral once per day), 134.1 mm^3; in assay [2] (setting [7]) it was 96.6 mm^3.
